target: T1, human IDO1 (Homo sapiens, UniProt P14902); experiment: IDO inhibition assay in human IDO1/HEK293 cells (IDO1 HEK Human); assay type: cell-based; details: HEK293 cells stably expressing human IDO1; 20 hours incubation; absorbance at 490 nm after Ehrlich reagent
T1 construct: expressed in transfected cells
Description: HEK293 cells were transfected with a pCDNA-based mammalian expression vector harboring human IDO1 cDNA (NM 002164.2) by electroporation. They were cultured in medium (DMEM with 10% FBS) containing 1 mg/ml G418 for two weeks. Clones of HEK293 cells that stably expressed human IDO1 protein were selected and expanded for IDO inhibition assay.
The human IDO1/HEK293 cells were seeded at 10,000 cells per 50 μL per well with RPMI/phenol red free media contains 10% FBS in a 384-well black wall clear bottom tissue culture plate (Matrix Technologies LLC) 100 nL of certain concentration of compound was then added to each well using ECHO liquid handling systems. The cells were incubated for 20 hours in 37° C. incubator with 5% CO2.
The compound treatments were stopped by adding trichloroacetic acid (Sigma-Aldrich) to a final concentration at 0.2%. The cell plate was further incubated at 50° C. for 30 minute. The equal volume supernatant (20 μL) and 0.2% (w/v) Ehrlich reagent (4-dimethylaminobenzaldehyde, Sigma-Aldrich) in glacial acetic acid were mixed in a new clear bottom 384-well plate. This plate was then incubated at RT for 30 minute. The absorbance at 490 nm was measured on Envision plate reader.
Compound IC50 values were calculated using the counts of 500 nM of a reference standard treatment as one hundred percent inhibition, and counts of no compound but DMSO treatment as zero percent inhibition.

T1 sequence (P14902 whole entry): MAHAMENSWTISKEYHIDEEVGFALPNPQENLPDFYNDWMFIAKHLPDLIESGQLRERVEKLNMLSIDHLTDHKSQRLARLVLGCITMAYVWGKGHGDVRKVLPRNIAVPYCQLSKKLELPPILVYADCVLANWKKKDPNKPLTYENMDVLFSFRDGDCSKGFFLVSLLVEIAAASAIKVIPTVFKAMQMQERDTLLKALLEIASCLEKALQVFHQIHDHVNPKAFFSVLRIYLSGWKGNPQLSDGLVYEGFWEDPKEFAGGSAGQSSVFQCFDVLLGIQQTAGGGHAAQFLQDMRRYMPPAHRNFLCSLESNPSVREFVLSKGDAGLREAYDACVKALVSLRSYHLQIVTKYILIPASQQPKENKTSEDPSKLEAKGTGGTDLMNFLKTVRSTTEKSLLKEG

Structure (SMILES) | IC50 [nM]
Cc1ccc(NC(=O)Nc2cc(-c3ccccc3-c3nnn[nH]3)cc3c2OCCC(C)C3C)cc1 (mixture of isomers) [Example 69, 1-(7-(2-(1H-tetrazol-5-yl)phenyl)-4,5-dimethyl-2,3,4,5-tetrahydrobenzo[b]oxepin-9-yl)-3-(p-tolyl)urea] | 14.6
Cc1ccc(NC(=O)Nc2cc(-c3ccccc3-c3nnn[nH]3)cc3c2OCC(O)C(O)C3c2ccccc2)cc1 (racemic) [9 (Rac.), 1-(7-(2-(1H-tetrazol-5-yl)phenyl)-3,4-dihydroxy-5-phenyl-2,3,4,5-tetrahydrobenzo[b]oxepin-9-yl)-3-(p-tolyl)urea] | 1040
Cc1ccc(CC(=O)Nc2cc(-c3ccccc3-c3nnn[nH]3)cc3c2OCCCC3C(C)C)cc1 (racemic) [25 (Rac), N-(7-(2-(1H-tetrazol-5-yl)phenyl)-5-isopropyl-2,3,4,5-tetrahydrobenzo[b]oxepin-9-yl)-2-(p-tolyl)acetamide] | 29.9
Cc1ccc(CC(=O)Nc2cc(-c3ccccc3-c3nnn[nH]3)cc3c2OCCCC3C2CC2)cc1 (racemic) [37 (Rac), N-(7-(2-(1H-tetrazol-5-yl)phenyl)-5-cyclopropyl-2,3,4,5-tetrahydrobenzo[b]oxepin-9-yl)-2-(p-tolyl)acetamide] | 117
Cc1cnc(Nc2cc(-c3ccccc3-c3nnn[nH]3)cc3c2OCCCC3c2ccccc2)nc1 (racemic) [55 (Rac), N-(7-(2-(1H-tetrazol-5-yl)phenyl)-5-phenyl-2,3,4,5-tetrahydrobenzo[b]oxepin-9-yl)-5-methylpyrimidin-2-amine] | 155
Cc1ccc(CC(=O)Nc2cc(-c3ccccc3-c3nnn[nH]3)cc3c2OCCCC3c2ccccc2)cc1 (racemic) [Example 2-1, N-(7-(2-(1H-tetrazol-5-yl)phenyl)-5-phenyl-2,3,4,5-tetrahydrobenzo[b]oxepin-9-yl)-2-(p-tolyl)acetamide] | 98.2
Cc1ccc(NC(=O)Nc2cc(-c3ccccc3C(=O)O)cc3c2OCCCC3c2ccccc2)cc1 (racemic) [Example 8-1, 2-(5-phenyl-9-(3-(p-tolyl)ureido)-2,3,4,5-tetrahydrobenzo[b]oxepin-7-yl)benzoic acid] | 27.2
Cc1ccc(NC(=O)Nc2cc(-c3ccccc3-c3nnn[nH]3)cc3c2OCCCC3C(C)C)cc1 (racemic) [Example 24, 1-(7-(2-(1H-tetrazol-5-yl)phenyl)-5-isopropyl-2,3,4,5-tetrahydrobenzo[b]oxepin-9-yl)-3-(p-tolyl)urea] | 4.4
Cc1ccc(NC(=O)Nc2cc(-c3ccccc3-c3nnn[nH]3)cc3c2OCCCC3C2CC2)cc1 (racemic) [Example 36, 1-(7-(2-(1H-tetrazol-5-yl)phenyl)-5-cyclopropyl-2,3,4,5-tetrahydrobenzo[b]oxepin-9-yl)-3-(p-tolyl)urea] | 7.6
c1ccc(C2CCCOc3c(Nc4nc5ccccc5o4)cc(-c4ccccc4-c4nnn[nH]4)cc32)cc1 (racemic) [Example 53, N-(7-(2-(1H-tetrazol-5-yl)phenyl)-5-phenyl-2,3,4,5-tetrahydrobenzo[b]oxepin-9-yl) benzo[d] oxazol-2-amine] | 4.2
C=C[C@H]1Oc2c(NC(=O)Nc3ccc(C)cc3)cc(-c3ccccc3-c3nnn[nH]3)cc2[C@@H]1c1ccccc1 (racemic) [Example 85, (+/−)-1-((trans)-5-(2-(1H-tetrazol-5-yl)phenyl)-3-phenyl-2-vinyl-2,3-dihydrobenzofuran-7-yl)-3-(p-tolyl)urea] | 32
C=C[C@@H]1Oc2c(NC(=O)Nc3ccc(C)cc3)cc(-c3ccccc3-c3nn[nH]n3)cc2[C@@H]1c1ccccc1 (racemic) [Example 86, (+/−)-1-((cis)-5-(2-(1H-tetrazol-5-yl)phenyl)-3-phenyl-2-vinyl-2,3-dihydrobenzofuran-7-yl)-3-(p-tolyl)urea] | 12
CC[C@@H]1Oc2c(NC(=O)Nc3ccc(C)cc3)cc(-c3ccccc3-c3nnn[nH]3)cc2[C@H]1c1ccccc1 (racemic) [Example 90, (+/−)-1-((trans)-5-(2-(1H-tetrazol-5-yl)phenyl)-3-phenyl-2-ethyl-2,3-dihydrobenzofuran-7-yl)-3-(p-tolyl)urea] | 18
C=C[C@H]1Oc2c(NC(=O)Cc3ccc(C)cc3)cc(-c3ccccc3-c3nnn[nH]3)cc2[C@@H]1c1ccccc1 (racemic) [Example 91, (+/−)-N-((trans)-5-(2-(1H-tetrazol-5-yl)phenyl)-3-phenyl-2-vinyl-2,3-dihydrobenzofuran-7-yl)-2-(p-tolyl)acetamide] | 89
C=C(C)[C@H]1Oc2c(NC(=O)Nc3ccc(C)cc3)cc(-c3ccccc3-c3nnn[nH]3)cc2[C@@H]1c1ccccc1 (racemic) [Example 93, (+/−)-1-((trans)-5-(2-(1H-tetrazol-5-yl)phenyl)-3-phenyl-2-(prop-1-en-2-yl)-2,3-dihydrobenzofuran-7-yl)-3-(p-tolyl)urea] | 9.1
C=C[C@H]1Oc2c(NC(=O)Nc3ccc(C)cc3)cc(-c3ccccc3-c3nnn[nH]3)cc2[C@@H]1CCC(F)(F)F (racemic) [Example 94, (+/−)-1-((trans)-5-(2-(1H-tetrazol-5-yl)phenyl)-3-(3,3,3-trifluoropropyl)-2-vinyl-2,3-dihydrobenzofuran-7-yl)-3-(p-tolyl)urea] | 19

Structure (SMILES) | IC50 [nM]
C=CC1Oc2c(NC(=O)Nc3ccccc3F)cc(-c3ccccc3-c3nnn[nH]3)cc2C1c1ccccc1 (racemic) [Example 95] | 88
C=C(C)C1Oc2c(NC(=O)Nc3ccc(C)cc3)cc(-c3ccccc3C(=O)O)cc2C1c1ccccc1 (racemic) [Example 96] | 26
C=C(C)C1Oc2c(NC(=O)Nc3ccc(C)cc3)cc(-c3ccc(OC)c(C(=O)O)c3)cc2C1c1ccccc1 (racemic) [Example 97] | 1800
C=CC1Oc2c(NC(=O)Nc3ccc(C)cc3)cc(-c3cc(F)ccc3C(=O)O)cc2C1c1ccccc1 (racemic) [Example 98] | 87
C=CC1Oc2c(NC(=O)Nc3ccc(CC)cc3)cc(-c3ccccc3-c3nnn[nH]3)cc2C1CCC(F)(F)F (racemic) [Example 99] | 5.6
CCC1Oc2c(NC(=O)Nc3ccc(C)cc3)cc(-c3ccccc3-c3nnn[nH]3)cc2C1CCC(F)(F)F (racemic) [Example 102] | 13
Cc1ccc(NC(=O)Nc2cc(-c3ccccc3-c3nnn[nH]3)cc3c2OC(C(C)C)C3c2ccccc2)cc1 (racemic) [Example 103] | 11
Cc1ccc(NC(=O)Nc2cc(C(C)CC(=O)O)cc3c2O[C@H](C2CC2)[C@H]3c2ccccc2)cc1 (mixture of isomers) [Example 111, rac-3-((2R,3S)-2-cyclopropyl-3-phenyl-7-(3-(p-tolyl)ureido)-2,3-dihydrobenzofuran-5-yl)butanoic acid] | 1400
C=CC1Oc2c(NC(=O)Nc3ccc(C)cc3)cc(C3(c4nnn[nH]4)CC3)cc2C1c1ccccc1 (racemic) [Example 112, (+/−)1-(5-(1-(1H-tetrazol-5-yl)cyclopropyl)-3-phenyl-2-vinyl-2,3-dihydrobenzofuran-7-yl)-3-(p-tolyl)urea] | 7900
Cc1ccc(NC(=O)Nc2cc(-c3ccccc3-c3nnn[nH]3)cc3c2OC(C)(C)C3c2ccccc2)cc1 (racemic) [Example 123, (±)-1-(5-(2-(1H-Tetrazol-5-yl)phenyl)-2,2-dimethyl-3-phenyl-2,3-dihydrobenzofuran-7-yl)-3-(p-tolyl)urea] | 6.3
Cc1ccc(NC(=O)Nc2cc(-c3ccccc3C(=O)O)cc3c2OC(C)(C)C3c2ccccc2)cc1 (racemic) [Example 124, (±)-2-(2,2-Dimethyl-3-phenyl-7-(3-(p-tolyl)ureido)-2,3-dihydrobenzofuran-5-yl) benzoic acid] | 77
CC1(C)Oc2c(NC(=O)Nc3ccccc3F)cc(-c3ccccc3-c3nnn[nH]3)cc2C1c1ccccc1 (racemic) [Example 125, (±)-1-(5-(2-(1H-Tetrazol-5-yl)phenyl)-2,2-dimethyl-3-phenyl-2,3-dihydrobenzofuran-7-yl)-3-(2-fluorophenyl)urea] | 92
CC1(C)Oc2c(NC(=O)Nc3ccccc3F)cc(-c3ccccc3C(=O)O)cc2C1c1ccccc1 (racemic) [Example 126, (±)-2-(7-(3-(2-Fluorophenyl)ureido)-2,2-dimethyl-3-phenyl-2,3-dihydrobenzofuran-5-yl)benzoic acid] | 310
CC1(C)Oc2c(NC(=O)Nc3ccc(C(F)(F)F)nc3)cc(-c3ccccc3-c3nnn[nH]3)cc2C1c1ccccc1 (racemic) [Example 127, (±)-1-(5-(2-(1H-Tetrazol-5-yl)phenyl)-2,2-dimethyl-3-phenyl-2,3-dihydrobenzofuran-7-yl)-3-(6-(trifluoromethyl)pyridin-3-yl)urea] | 2100
CC1(C)Oc2c(NC(=O)Nc3ccc(C(F)(F)F)nc3)cc(-c3ccccc3C(=O)O)cc2C1c1ccccc1 (racemic) [Example 128, (±)-2-(2,2-Dimethyl-3-phenyl-7-(3-(6-(trifluoromethyl)pyridin-3-yl)ureido)-2,3-dihydrobenzofuran-5-yl)benzoic acid] | 2300
Cc1ccc(NC(=O)Nc2cc(-c3ccccc3-c3nnn[nH]3)cc3c2OCCC3c2ccccc2)cc1 (racemic) [Example 132, (+/−)-1-(6-(2-(2H-tetrazol-5-yl)phenyl)-4-phenylchroman-8-yl)-3-(p-tolyl)urea] | 21.2

Source: US12145927B2 (BRISTOL-MYERS SQUIBB COMPANY, priority 2018, dated 2024)
